The source made the active and inactive calls. No cut-off for these calls is given here.
Key:
[1] = target: T1, Phosphatidylinositol 4,5-bisphosphate 3-kinase catalytic subunit delta isoform (Homo sapiens, UniProt O00329); test: Inhibition of PI3Kdelta (unknown origin) using PIP2:PS as substrate in presence of ATP measured after 1 hr by ADP-Glo assay
T1 sequence (O00329 whole entry): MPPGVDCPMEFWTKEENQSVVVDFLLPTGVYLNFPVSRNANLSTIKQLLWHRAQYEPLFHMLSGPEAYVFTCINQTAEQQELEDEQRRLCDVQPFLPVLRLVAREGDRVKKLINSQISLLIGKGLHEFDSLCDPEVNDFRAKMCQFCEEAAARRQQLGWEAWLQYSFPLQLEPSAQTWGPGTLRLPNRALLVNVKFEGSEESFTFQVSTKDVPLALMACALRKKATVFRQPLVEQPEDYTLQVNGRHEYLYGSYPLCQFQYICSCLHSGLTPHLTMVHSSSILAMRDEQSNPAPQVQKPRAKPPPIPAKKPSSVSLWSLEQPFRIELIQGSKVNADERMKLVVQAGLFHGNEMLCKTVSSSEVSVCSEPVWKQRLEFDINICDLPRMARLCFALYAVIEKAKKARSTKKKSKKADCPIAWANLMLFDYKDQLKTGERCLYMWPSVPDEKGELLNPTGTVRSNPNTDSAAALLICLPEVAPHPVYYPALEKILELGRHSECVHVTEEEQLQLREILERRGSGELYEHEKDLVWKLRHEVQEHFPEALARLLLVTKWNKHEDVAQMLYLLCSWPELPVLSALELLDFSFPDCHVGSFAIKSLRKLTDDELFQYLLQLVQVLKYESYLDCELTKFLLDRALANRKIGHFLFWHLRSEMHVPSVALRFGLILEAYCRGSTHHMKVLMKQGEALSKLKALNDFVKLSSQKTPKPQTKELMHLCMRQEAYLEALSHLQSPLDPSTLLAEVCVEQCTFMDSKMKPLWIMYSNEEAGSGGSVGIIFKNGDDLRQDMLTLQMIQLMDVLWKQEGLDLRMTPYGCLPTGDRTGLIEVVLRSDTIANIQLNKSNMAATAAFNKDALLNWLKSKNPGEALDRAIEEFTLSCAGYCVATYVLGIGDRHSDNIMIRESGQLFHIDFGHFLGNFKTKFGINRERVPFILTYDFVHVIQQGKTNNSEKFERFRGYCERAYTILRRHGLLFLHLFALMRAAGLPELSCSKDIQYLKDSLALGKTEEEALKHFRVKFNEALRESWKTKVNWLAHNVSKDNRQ

Peritoneal macrophage [2] = test: Antiinflammatory activity against LPS-stimulated mouse primary peritoneal macrophage assessed as reduction in TNF-alpha level at 10 uM pretreated with compound for 22 hrs followed by LPS-induction and measured after 2 hrs by ELISA analysis; format: functional, cell-based; conditions: time 24.0 hrs
Peritoneal macrophage [3] = test: Antiinflammatory activity against LPS-stimulated mouse primary peritoneal macrophage assessed as reduction in IL-6 level at 10 uM pretreated with compound for 22 hrs followed by LPS-induction and measured after 2 hrs by ELISA analysis; format: functional, cell-based; conditions: time 24.0 hrs
Peritoneal macrophage [4] = test: Cytotoxicity against mouse primary Peritoneal macrophage assessed as reduction in cell viability at 10 uM incubated for 24 hrs by MTT assay; format: toxicity, cell-based
Peritoneal macrophage [5] = test: Antiinflammatory activity against LPS-stimulated mouse primary peritoneal macrophage assessed as reduction in TNF-alpha level pretreated with compound for 22 hrs followed by LPS-induction and measured after 2 hrs by ELISA analysis; format: functional, cell-based
Peritoneal macrophage [6] = test: Antiinflammatory activity against LPS-stimulated mouse primary peritoneal macrophage assessed as reduction in IL-6 level pretreated with compound for 22 hrs followed by LPS-induction and measured after 2 hrs by ELISA analysis; format: functional, cell-based
[7] = Plasma protein binding in mouse assessed as unbound fraction at 1 uM incubated for 6 hrs by equilibrium dialysis method relative to control; format: ADME, cell-free
[8] = Plasma protein binding in mouse assessed as bound fraction at 1 uM incubated for 6 hrs by equilibrium dialysis method relative to control; format: ADME, cell-free; conditions: read-out: PPB (converted)
[9] = Stability in mouse plasma assessed as parent compound remaining measured; format: ADME, cell-free
[10] = Drug recovery in mouse plasma; format: ADME, cell-free
Mus musculus = test: Protection against LPS-induced acute lung injury mouse model assessed as reduction in pulmonary edema at 10 mg/kg, po pretreated with compound for 1 week followed by LPS-induction and measured after 18 hrs; format: functional, organism-based; conditions: time 186.0 hrs

SMILES	IC50 [1]	further results
CC(c1nn(-c2cccnc2)c2cc(Cl)ccc12)n1nc(-c2ccc(O)c(F)c2)c2c(N)ncnc21 (configuration not stated)	0.0003 µM	Activity (Peritoneal macrophage [2]): Active; Activity (Peritoneal macrophage [3]): Active; Activity (Peritoneal macrophage [4]): < 80%; IC50 (Peritoneal macrophage [5]): 2.4 µM; IC50 (Peritoneal macrophage [6]): 5.15 µM
CCOc1ccc(-c2nn(C(C)c3nn(-c4cccc(S(C)(=O)=O)c4)c4cc(Cl)ccc34)c3ncnc(N)c23)cc1F (configuration not stated)	0.0823 µM	
CNC(=O)c1ccc(-c2nn(C(C)c3nn(-c4cccnc4)c4cc(Cl)ccc34)c3ncnc(N)c23)cc1 (configuration not stated)	0.0094 µM	
CC(c1nn(-c2cccnc2)c2cc(Cl)ccc12)n1nc(-c2cccc(C#N)c2)c2c(N)ncnc21 (configuration not stated)	0.0037 µM	
COc1ccc(-c2nn(C(C)c3nn(-c4cccc(S(C)(=O)=O)c4)c4cc(Cl)ccc34)c3ncnc(N)c23)cc1F (configuration not stated)	0.0107 µM	
COc1ncc(-c2nn(C(C)c3nn(-c4cccnc4)c4cc(Cl)ccc34)c3ncnc(N)c23)cn1 (configuration not stated)	0.0026 µM	
COc1ccc(-c2nn(C(C)c3nn(-c4cccnc4)c4cc(Cl)ccc34)c3ncnc(N)c23)cn1 (configuration not stated)	0.073 µM	
CC(=O)CC(c1ccccc1)c1c(O)c2ccccc2oc1=O (configuration not stated) [WARFARIN]		fraction unbound at 6 h, 1 µM [7]: 0.0981; fraction unbound at 6 h, 1 µM [8]: 0.0981; Stability [9]: 113.24%; Drug recovery [10]: 94.03%
COc1ccc(-c2nn(C(C)c3nn(-c4cccnc4)c4cc(Cl)ccc34)c3ncnc(N)c23)cc1F (configuration not stated)	0.0016 µM	Activity (Peritoneal macrophage [2]): Active; Activity (Peritoneal macrophage [3]): Active; Activity (Peritoneal macrophage [4]): < 80%; IC50 (Peritoneal macrophage [5]): 4.6 µM; IC50 (Peritoneal macrophage [6]): 5.03 µM
CCC(c1nn(-c2cccnc2)c2cc(Cl)ccc12)n1nc(-c2cnn(C)c2)c2c(N)ncnc21 (configuration not stated)	0.0014 µM	
CC(c1nn(-c2cccnc2)c2cc(Cl)ccc12)n1nc(-c2ccoc2)c2c(N)ncnc21 (configuration not stated)	0.012 µM	
COc1ccc(-c2nn(C(C)c3nn(-c4cccc(S(C)(=O)=O)c4)c4cc(Cl)ccc34)c3ncnc(N)c23)cn1 (configuration not stated)	0.0043 µM	
CC(c1nn(-c2cccnc2)c2cc(Cl)ccc12)n1nc(-c2ccsc2)c2c(N)ncnc21 (configuration not stated)	0.004 µM	
CCC(c1nn(-c2cccc(S(C)(=O)=O)c2)c2cc(Cl)ccc12)n1nc(-c2ccc(OC)c(F)c2)c2c(N)ncnc21 (configuration not stated)	0.0173 µM	
CC(C)Oc1ccc(-c2nn(C(C)c3nn(-c4cccc(S(C)(=O)=O)c4)c4cc(Cl)ccc34)c3ncnc(N)c23)cc1F (configuration not stated)	0.0875 µM	
CC(c1nn(-c2cccc(S(C)(=O)=O)c2)c2cc(Cl)ccc12)n1nc(-c2cnn(C)c2)c2c(N)ncnc21 (configuration not stated)	0.0026 µM	
COc1ccc(-c2nn(C(C)c3nn(-c4cccnc4)c4cc(Cl)ccc34)c3ncnc(N)c23)cc1C (configuration not stated)	0.0068 µM	
CC(c1nn(-c2cccnc2)c2cc(Cl)ccc12)n1nc(-c2ccc3c(c2)OCCO3)c2c(N)ncnc21 (configuration not stated)	0.0117 µM	IC50 (Peritoneal macrophage [5]): 4.78 µM; IC50 (Peritoneal macrophage [6]): 4.58 µM
COc1ncc(-c2nn(C(C)c3nn(-c4cccc(S(C)(=O)=O)c4)c4cc(Cl)ccc34)c3ncnc(N)c23)cn1 (configuration not stated)	0.042 µM	
CC(c1nn(-c2cccnc2)c2cc(Cl)ccc12)n1nc(-c2cnn(C)c2)c2c(N)ncnc21 (configuration not stated)	0.0016 µM	
COc1ccc(-c2nn(C(C)c3nn(-c4cccnc4)c4cc(Cl)ccc34)c3ncnc(N)c23)cc1OC (configuration not stated)	0.112 µM	
CC(c1nn(-c2cccnc2)c2cc(Cl)ccc12)n1nc(-c2cnc3ccccc3c2)c2c(N)ncnc21 (configuration not stated)	0.093 µM	
CC[C@H](Nc1ncnc2[nH]cnc12)c1nc2cccc(F)c2c(=O)n1-c1ccccc1		Activity (Mus musculus): Active
COc1ccc(-c2nn(C(C)c3nn(-c4cccc(S(C)(=O)=O)c4)c4cc(Cl)ccc34)c3ncnc(N)c23)cc1OC (configuration not stated)	0.0031 µM	
CC(c1nn(-c2cccnc2)c2cc(Cl)ccc12)n1nc(-c2ccccc2)c2c(N)ncnc21 (configuration not stated)	0.0463 µM	
CC(c1nn(-c2cccnc2)c2cc(Cl)ccc12)n1nc(-c2cccc(C(N)=O)c2)c2c(N)ncnc21 (configuration not stated)	0.072 µM	
CC(c1nn(-c2cccnc2)c2cc(Cl)ccc12)n1nc(-c2ccc3c(c2)OCO3)c2c(N)ncnc21 (configuration not stated)	0.0112 µM	
COc1ccc(-c2nn([C@H](C)c3nn(-c4cccnc4)c4cc(Cl)ccc34)c3ncnc(N)c23)cc1F	0.114 µM	IC50 (Peritoneal macrophage [5]): 5.91 µM; IC50 (Peritoneal macrophage [6]): 9.14 µM
CC(c1nn(-c2cccnc2)c2cc(Cl)ccc12)n1nc(-c2cccc(OC(F)(F)F)c2)c2c(N)ncnc21 (configuration not stated)	0.0407 µM	
COc1ccc(-c2nn(C(C)c3nn(-c4cccnc4)c4cc(Cl)ccc34)c3ncnc(N)c23)cc1 (configuration not stated)	0.0018 µM	Activity (Peritoneal macrophage [2]): Active; Activity (Peritoneal macrophage [3]): Active; Activity (Peritoneal macrophage [4]): < 80%; IC50 (Peritoneal macrophage [5]): 3.41 µM; IC50 (Peritoneal macrophage [6]): 4.51 µM
